Experimental data reported in BigSolDB 2.1.

O=C(O)c1ccc(C(=O)O)cc1
solubility (mole fraction)
Settings	303.2 K	313.2 K	323.2 K	333.2 K	343.2 K	353.2 K	363.2 K
in DMAc	0.016	0.0211	0.0269	0.0331	0.0385	0.0452	0.0524
in NMP	0.0133	0.0155	0.0188	0.0216	0.0256	0.0287	0.0328
